Key:
CFTR [1] = experiment: Trans-epithelial chloride currents, Ussing chamber assay, T84 cells; assay type: cell-based
Procedure: (§1) The correlation between increased levels and increased functional CFTR in the cell membrane was also examined either by measuring chloride permeability using MQAE fluorescence or trans-epithelial chloride currents using the Ussing chamber assay. […] Dox increased total cellular CFTR protein levels by 1.6- to 2-fold in T84 cells, and levels were maximal at approximately 18 to 24 hours after treatment. […] Dox increased the amount of cell surface-detectable CFTR by approximately 2.5- to 3-fold in these cells. Dox treatment of T84 cells was also determined to increase CFTR-associated chloride currents by approximately 2.1-fold as measured by the Using chamber assay and to increase chloride permeability by approximately 2-fold as measured by MQAE fluorescence in these cells.

CFTR [2] = experiment: Chloride permeability by MQAE fluorescence, T84 cells; assay type: cell-based
Procedure: as §1

human ΔF508 CFTR = experiment: Chloride currents in MDCK-derived cell line stably transfected with human ΔF508 CFTR cDNA (CMV promoter); assay type: cell-based; conditions: MDCK cell line expressing human ΔF508 CFTR; statistically significant
Procedure: (§2) The ability of Dox to increase functional expression of ΔF508 CFTR in a similar manner was then assessed. In initial experiments, the effects of Dox on ΔF508 CFTR expression were examined in a canine kidney MDCK-derived cell line that had been stably transfected with a human ΔF508 CFTR cDNA construct expressed under the control of a CMV promoter. As controls, the effects of Dox on CFTR expression in the wild-type parental MDCK-C7 cells from which the stable cell line was derived and an MDCK-derived cell line stably transfected with GFP-tagged wild-type human CFTR also under the control of the CMV promoter were examined. Dox had no effect on chloride currents in either controls.

MDCK-C7 cells = experiment: Chloride currents in wild-type parental MDCK-C7 cells (control); assay type: cell-based, canine
Procedure: as §2

[3] = system: GFP-tagged wild-type human CFTR; experiment: Chloride currents in MDCK-derived cell line stably transfected with GFP-tagged wild-type human CFTR (control); assay type: cell-based; conditions: MDCK cells with GFP-tagged wild-type human CFTR
Procedure: as §2

GFP-Pgp = conditions: MDR29 cells
[4] = system: MDR4, MDR10, MDR29 and parental MDCK-C7 cells; conditions: dog, 3 days
Procedure: Cells were plated in 96 well plates (Fisher, Medford, Mass.) at a density of 1000 cells per well. Twenty-four hours after plating, the cells were dosed with 0-10 μM Dox in serum-free media as described above. The cells were incubated for three days and assayed using the CellTiter 96 AQueous One Solution Reagent (Promega Corp., Madison, Wis.) using the manufacturer's instructions. The data were collected and analyzed using the Softmax software. A cytotoxicity assay was also performed with cisplatin (0-30 μM) as described above.

[5] = system: wild-type CFTR mRNA expression; experiment: CFTR mRNA expression in HT-29 human colon cell line; assay type: cell-based; conditions: HT-29 cells
Procedure: Experiments were performed which identified specific agents that increase functional cell surface expression of the ΔF508 CFTR protein. […] However, a rapid increase in CFTR mRNA to 1.5-fold over controls was seen by 48 hours and remained high through the end of the experiment.

CFTR protein levels = CFTR protein levels by western blotting using anti-CFTR antibodies in T84 cells; assay type: cell-based
Procedure: as §1

SMILES	increase in CFTR-associated chloride currents (CFTR [1])	increase in chloride permeability (CFTR [2])	increase in chloride currents (human ΔF508 CFTR)	effect on chloride currents (MDCK-C7 cells)	effect on chloride currents [3]	membrane Pgp levels (GFP-Pgp; 24-72 hour period after treatment)	cellular GFP levels (GFP-Pgp; compared with Pgp membrane levels)	EC50 for cytotoxicity (colony formation), MDR cell lines relative to parental cell line [4]	effect on CFTR mRNA expression ([5]; between 0 and 36 hours after treatment)	increase in CFTR mRNA over controls ([5]; by 48 hours, remained high through end of experiment)	CFTR mRNA expression over a 72 hour period ([5]; single non-toxic treatment, over 72 hours)	mature CFTR protein levels (CFTR protein levels)
COc1cccc2c1C(=O)c1c(O)c3c(c(O)c1C2=O)C[C@@](O)(C(=O)CO)C[C@@H]3O[C@H]1C[C@H](N)[C@H](O)[C@H](C)O1 [Dox, doxorubicin]	approximately 2.1 fold	approximately 2 fold	approximately 1.7 fold	no effect	no effect	progressive and substantial increase	increased earlier and to a greater extent	2.5-3.5 fold	–	–	–	–
CO[C@@]12[C@H](COC(N)=O)C3=C(C(=O)C(C)=C(N)C3=O)N1C[C@@H]1N[C@@H]12 [MMC, mitomycin C]	approximately 1.2 fold	–	–	–	–	–	–	–	Little or no effect	1.5 fold	significant increase	significantly increased

Reference: patent US7585639B1, “Methods for modulating ATP-binding cassette transmembrane reporter protein expression” (Trustees of Dartmouth College, priority 1999, dated 2009)
